Reference: patent US8058283B2, “7H-pyrido[3,4-D]pyrimidin-8-ones, their manufacture and use as protein kinase inhibitors” (Hoffmann-La Roche Inc., priority 2006, dated 2011)

Key:
Assay type in all cases: biochemical
[1] = biological target: human recombinant PDGFR beta (Homo sapiens, UniProt P09619); experiment: IC50 determination for inhibitors of PDGFR kinase (IMAP fluorescence polarization); details: 48 uM ATP, room temperature, 60 minutes; read-out: IC50 PDGFR kinase inhibition
Procedure: IC50 Determination for Inhibitors of PDGFR Kinase Assay Principle
PDGFR assay was carried out with human recombinant PDGFR beta, fluorescein labeled peptide substrate (with a peptide sequence of ALTSNQEYLDLSMPL) and test compounds (in serial dilution) using 384-well plates. Kinase reaction was performed in MOPS buffer (20 mM MOPS pH 7.1, 5 mM Sodium Acetate, 6.25 mM MgCl2, 0.5 mM EDTA, 1 mM DTT, 0.04 mM NaVO4, 0.02% BSA), in the presence of 48 uM ATP, incubated at room temperature for 60 minutes. Reaction was stopped by IMAP Bead Binding System (Molecular Devices). After incubation at room temperature for 2 hours, the reaction product was analyzed on LJL Acquest.
(§1) FP reading (in mP) was used to calculate reaction rate. The assay was semi-automated by Tomtec Quadra workstation.

Src (p60c-src) = biological target: T1, Src (p60c-src) (Homo sapiens, UniProt P12931); experiment: Src-Inhibitor-Assay (time-resolved fluorescence); details: ATP 5 μM; enzyme pre-incubated 15 min at 15° C. with inhibitor
T1 construct: purchased UBI, Upstate Biotech, Inc
Procedure: Src-Inhibitor-Assay Parameters:
• ATP 5 μM • Peptide (Ro+Ja133-Ro): 10 μM • Ja133-Ro 196 nM • Ro 9.8 μM • PT66 230 ng/ml • Assay buffer: 4 mM MgCl2 • 2 mM TCEP • 50 mM HEPES • 0.1% Tween 20 • pH 7.3 • Enzyme: 2.5 U/ml • Inhibitor: max. 25 μM • min. 0.42 nM Material: • Eu-labelled phosphotyrosine antibody: —for Lck Cisbio Mab PT66-K, • for Src EG&G Wallac PT66 Eu-W1024 (all commercially available). • Peptides: Ro: NH2-A-E-E-E-I-Y-G-E-F-E-A-K-K-K-K-CONH2, and • Ja133-Ro: Ja133-G-Aminocaprylic acid-A-E-E-E-I-Y-G-E-F-E-A-K-K-K-K-CONH2, wherein Ja133 is LightCycler-Red 640-N-hydroxy succinimide ester; • whereby both peptides were synthesized by an optimized solid phase peptide synthesis protocol (Merrifield, Fed. Proc. Fed. Amer. Soc. Exp. Biol. 21 (1962) 412) on a Zinsser SMP350 peptide synthesizer. Shortly, the peptide was assembled on 160 mg (22.8 μmol scale) of a Rink-Linker modified polystyrene solid phase by repeatedly conjugating an twenty fold excess of amino acids each protected by temporary piperidine labile Fmoc- and permanent acid labile tert-Bu-, BOC- and O-tert-Bu-groups depending on the side chain function. The substrate sequence AEEEIYGEFEAKKKK was N-terminal additionally mounted with the spacer amino acids Aminocaprylic acid and Glycin. After cleavage of the N-terminal temporary protecting group the still attached and protected peptide was labeled with a 1.5 fold amount of LightCycler-Red 640-N-hydroxy succinimide ester (purchased from Roche Diagnostics GmbH) and triethylamine. After 3 hrs. the resin was washed with Dimethylformamide and Isopropanol until the eluates of the blue resin got colourless. […] The substrate was finally isolated by a preparative reverse phase HPLC purification. The purification yielded 12.2 mg RP-HPLC single peak pure blue material (lyophilisate). The identity was proven by MALDI mass spectroscopy [2720.0]. • Enzymes: Upstate Lck (p56^lck, active), Upstate Src (p60^c-src, partially purified) were purchased from UBI, Upstate Biotech, Inc. Time-resolved Fluorescence Assay: Reader: Perkin Elmer, Wallac Viktor 1420-040 multilabel counter; Liquid handling system: Beckman Coulter, Biomek 2000.
ATP, Tween™ 20, 4-(2-hydroxyethyl)-1-piperazineethanesulfonic acid (HEPES) were purchased from Roche Molecular Biochemicals, MgCl2 and MnCl2 were purchased from Merck Eurolab, Tris(2-carboxyethyl)phosphine hydrochloride (TCEP) was purchased from Pierce, 384 Well low volume fluorescence plates was purchased from Falcon.
At first the enzyme is pre-incubated for 15 min. at 15° C. in aqueous solution with corresponding amounts of inhibitors according to this invention. Then the phosphorylation reaction is started by adding a reaction mixture, containing ATP, Peptide and PT66, and subsequent shaking. The proceeding of this reaction is immediately monitored using time resolved fluorescence spectroscopy in a suitable well plate reader.
The IC50-values can be obtained from the reaction rates by using a non-linear curve fit (XLfit software (ID Business Solution Ltd., Guilford, Surrey, UK)).

[2] = biological target: T2, mouse Abl (27-end) fusion protein (Mus musculus, UniProt P00520); experiment: IC50 determination for inhibitors of Abl kinase (IMAP fluorescence polarization); details: 22.8 uM ATP, 37° C., 60 minutes; read-out: IC50 Abl kinase inhibition
T2 construct: fusion protein corresponding to mouse Abl (27-end)
Procedure: IC50 Determination for Inhibitors of Abl Kinase
Abl assay was done using fusion protein corresponding to mouse Abl (27-end) fluorescein labeled peptide substrate (with a sequence of EAIYAAPFAKKK) and quantified by Molecular Devices' IMAP fluorescence polarization technology. Compounds were tested in serially diluted concentrations in 384 well plates. Kinase reaction was performed in KAB Buffer (10 mM HEPES, pH 7, 50 mM NaCl, 5 mM MgCl2, 1 mM DTT, 0.1 mM NaVO4, 0.02% BSA), in the presence of 22.8 uM ATP, incubated at 37° C. for 60 minutes. Reaction was stopped by IMAP bead mix (at 1:400 diluted). After incubation at room temperature for 3 hours, the reaction product was analyzed on LJL Acquest (excitation 485 nm and Emission 530 nm).
as §1

T1 sequence (P12931 whole entry): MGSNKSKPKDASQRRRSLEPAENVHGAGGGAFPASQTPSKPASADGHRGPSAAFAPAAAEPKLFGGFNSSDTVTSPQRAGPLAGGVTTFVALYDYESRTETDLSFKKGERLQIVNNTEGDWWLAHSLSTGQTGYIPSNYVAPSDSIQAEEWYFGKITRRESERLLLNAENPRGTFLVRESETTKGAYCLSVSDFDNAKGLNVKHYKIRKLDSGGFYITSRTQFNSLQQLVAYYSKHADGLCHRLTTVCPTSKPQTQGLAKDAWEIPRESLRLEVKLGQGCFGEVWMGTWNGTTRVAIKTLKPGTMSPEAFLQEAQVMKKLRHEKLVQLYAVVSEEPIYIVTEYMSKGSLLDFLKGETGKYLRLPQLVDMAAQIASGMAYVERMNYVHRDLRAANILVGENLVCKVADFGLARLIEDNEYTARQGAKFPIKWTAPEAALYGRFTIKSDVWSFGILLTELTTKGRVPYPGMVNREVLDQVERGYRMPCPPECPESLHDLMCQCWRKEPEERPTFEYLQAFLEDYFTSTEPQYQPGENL
T2 sequence (P00520 27-1123 limits assumed): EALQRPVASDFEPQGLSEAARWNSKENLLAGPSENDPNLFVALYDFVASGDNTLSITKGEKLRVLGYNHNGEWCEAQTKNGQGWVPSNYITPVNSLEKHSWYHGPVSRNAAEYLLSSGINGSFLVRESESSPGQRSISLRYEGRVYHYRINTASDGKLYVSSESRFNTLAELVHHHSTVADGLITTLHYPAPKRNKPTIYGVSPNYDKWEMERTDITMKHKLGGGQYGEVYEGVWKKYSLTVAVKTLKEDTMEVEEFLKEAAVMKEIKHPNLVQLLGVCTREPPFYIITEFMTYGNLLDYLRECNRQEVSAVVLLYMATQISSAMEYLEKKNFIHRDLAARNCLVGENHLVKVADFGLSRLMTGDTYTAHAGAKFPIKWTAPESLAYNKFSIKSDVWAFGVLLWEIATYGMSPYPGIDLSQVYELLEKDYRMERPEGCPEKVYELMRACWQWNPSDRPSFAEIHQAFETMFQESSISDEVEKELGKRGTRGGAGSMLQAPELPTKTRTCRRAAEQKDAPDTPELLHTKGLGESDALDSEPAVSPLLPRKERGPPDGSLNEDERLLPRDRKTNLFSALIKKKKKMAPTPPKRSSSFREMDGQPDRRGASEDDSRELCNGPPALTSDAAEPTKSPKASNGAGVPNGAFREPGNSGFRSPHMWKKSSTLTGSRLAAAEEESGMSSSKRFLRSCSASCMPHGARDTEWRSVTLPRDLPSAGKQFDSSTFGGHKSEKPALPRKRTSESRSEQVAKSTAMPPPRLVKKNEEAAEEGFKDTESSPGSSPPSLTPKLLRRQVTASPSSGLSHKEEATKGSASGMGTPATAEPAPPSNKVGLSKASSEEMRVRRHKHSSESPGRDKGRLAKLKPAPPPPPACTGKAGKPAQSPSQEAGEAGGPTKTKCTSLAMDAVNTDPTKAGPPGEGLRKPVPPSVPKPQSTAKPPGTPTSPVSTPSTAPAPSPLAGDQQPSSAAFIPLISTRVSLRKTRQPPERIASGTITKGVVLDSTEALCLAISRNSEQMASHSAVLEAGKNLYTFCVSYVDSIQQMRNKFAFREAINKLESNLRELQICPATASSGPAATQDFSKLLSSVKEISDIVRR
Sequence of human recombinant PDGFR beta (P09619 33-1106): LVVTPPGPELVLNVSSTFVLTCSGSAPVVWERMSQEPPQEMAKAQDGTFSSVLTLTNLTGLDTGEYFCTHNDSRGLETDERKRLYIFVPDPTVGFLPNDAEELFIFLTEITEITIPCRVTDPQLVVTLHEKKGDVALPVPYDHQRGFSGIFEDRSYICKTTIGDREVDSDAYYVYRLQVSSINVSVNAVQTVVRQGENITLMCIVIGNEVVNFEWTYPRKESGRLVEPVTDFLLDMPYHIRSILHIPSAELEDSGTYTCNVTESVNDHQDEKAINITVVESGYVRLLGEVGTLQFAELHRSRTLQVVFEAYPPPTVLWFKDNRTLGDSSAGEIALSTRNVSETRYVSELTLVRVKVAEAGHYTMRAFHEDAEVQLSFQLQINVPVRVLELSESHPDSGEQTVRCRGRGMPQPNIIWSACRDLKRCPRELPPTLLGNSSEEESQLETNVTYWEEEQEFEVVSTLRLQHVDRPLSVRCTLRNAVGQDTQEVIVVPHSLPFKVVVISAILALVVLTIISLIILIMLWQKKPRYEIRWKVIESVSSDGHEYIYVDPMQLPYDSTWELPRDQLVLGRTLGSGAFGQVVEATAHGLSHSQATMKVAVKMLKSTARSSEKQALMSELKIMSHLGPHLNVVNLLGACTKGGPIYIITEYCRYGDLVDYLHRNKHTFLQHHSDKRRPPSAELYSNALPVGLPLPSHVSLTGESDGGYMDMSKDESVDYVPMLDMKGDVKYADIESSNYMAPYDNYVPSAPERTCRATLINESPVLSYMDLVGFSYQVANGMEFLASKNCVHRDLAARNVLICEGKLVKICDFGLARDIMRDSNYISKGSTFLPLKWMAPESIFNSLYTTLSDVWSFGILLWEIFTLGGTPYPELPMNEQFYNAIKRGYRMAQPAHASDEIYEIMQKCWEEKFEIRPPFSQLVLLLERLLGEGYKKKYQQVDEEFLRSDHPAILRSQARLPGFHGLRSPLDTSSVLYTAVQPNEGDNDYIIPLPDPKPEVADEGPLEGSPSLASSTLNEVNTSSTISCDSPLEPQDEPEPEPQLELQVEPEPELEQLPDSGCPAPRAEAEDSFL

Structure (SMILES) | IC50 [1] [nM] | IC50 (Src (p60c-src)) [nM] | IC50 [2] [nM]
Cc1ccccc1-c1cc2cnc(Nc3ccc(N4CCOCC4)cc3)nc2c(=O)n1C [Example 1, 7-Methyl-2-(4-morpholin-4-yl-phenylamino)-6-o-tolyl-7H-pyrido[3,4-d]pyrimidin-8-one] | 1 to 500 | 2.9 | 1 to 500
Cc1ccccc1-c1cc2cnc(Nc3ccc(N4CCN(C)CC4)cc3)nc2c(=O)n1C [Example 3, 7-Methyl-2-[4-(4-methyl-piperazin-1-yl)-phenylamino]-6-o-tolyl-7H-pyrido[3,4-d]pyrimidin-8-one] | 94 | 1 to 500 | 1 to 500
Cc1ccccc1-c1cc2cnc(NC(CO)CO)nc2c(=O)n1C [Example 4, 2-(2-Hydroxy-1-hydroxymethyl-ethylamino)-7-methyl-6-o-tolyl-7H-pyrido[3,4-d]pyrimidin-8-one] | – | 500 to 1500 | 500 to 15000
Cc1ccccc1-c1cc2cnc(Nc3ccc(S(=O)(=O)NCCO)cc3)nc2c(=O)n1CC(N)=O [Example 5, 2-{2-[4-(2-Hydroxy-ethylsulfamoyl)-phenylamino]-8-oxo-6-o-tolyl-8H-pyrido[3,4-d]pyrimidin-7-yl}-acetamide] | – | 1 to 500 | 77
Cc1ccccc1-c1cc2cnc(Nc3ccc(S(=O)(=O)NCCO)cc3)nc2c(=O)n1C [Example 6, N-(2-Hydroxy-ethyl)-4-(7-methyl-8-oxo-6-o-tolyl-7,8-dihydro-pyrido[3,4-d]pyrimidin-2-ylamino)-benzenesulfonamide] | 1 to 500 | 1 to 500 | 1 to 500
CCN(CC)CCOc1ccc(Nc2ncc3cc(-c4ccccc4C)n(C)c(=O)c3n2)cc1 [Example 7, 2-[4-(2-Diethylamino-ethoxy)-phenylamino]-7-methyl-6-o-tolyl-7H-pyrido[3,4-d]pyrimidin-8-one] | 1 to 500 | 1 to 500 | 1 to 500
Cc1ccccc1-c1cc2cnc(Nc3cccc([S+](C)[O-])c3)nc2c(=O)n1CC(N)=O (stereo not shown) [Example 8, 2-[2-(3-Methanesulfinyl-phenylamino)-8-oxo-6-o-tolyl-8H-pyrido[3,4-d]pyrimidin-7-yl]-acetamide] | – | 1 to 500 | 214
Cc1ccccc1-c1cc2cnc(Nc3cccc([S+](C)[O-])c3)nc2c(=O)n1C (stereo not shown) [Example 10, 2-(3-Methanesulfinyl-phenylamino)-7-methyl-6-o-tolyl-7H-pyrido[3,4-d]pyrimidin-8-one] | 417 | 1 to 500 | 1 to 500
Cc1ccccc1-c1cc2cnc(NC3CCOCC3)nc2c(=O)n1C [Example 12, 7-Methyl-2-(tetrahydro-pyran-4-ylamino)-6-o-tolyl-7H-pyrido[3,4-d]pyrimidin-8-one] | – | 687 | 500 to 15000
COc1cccc(Cn2c(-c3ccccc3C)cc3cnc(Nc4ccc(N5CCN(C)CC5)cc4)nc3c2=O)c1 [Example 20, 7-(3-Methoxy-benzyl)-2-[4-(4-methyl-piperazin-1-yl)-phenylamino]-6-o-tolyl-7H-pyrido[3,4-d]pyrimidin-8-one] | 500 to 15000 | 1 to 500 | 1 to 500

More lines, now with the values ahead:

IC50 [1] [nM] | IC50 (Src (p60c-src)) [nM] | IC50 [2] [nM] | Structure (SMILES)
– | 1 to 500 | 1 to 500 | COc1cccc(Cn2c(-c3ccccc3C)cc3cnc(Nc4ccc(S(=O)(=O)NCCO)cc4)nc3c2=O)c1 [Example 21, N-(2-Hydroxy-ethyl)-4-[7-(3-methoxy-benzyl)-8-oxo-6-o-tolyl-7,8-dihydro-pyrido[3,4-d]pyrimidin-2-ylamino]-benzenesulfonamide]
– | – | 1 to 500 | CCN(CC)CCOc1ccc(Nc2ncc3cc(-c4ccccc4C)n(Cc4cccc(OC)c4)c(=O)c3n2)cc1 [Example 22, 2-[4-(2-Diethylamino-ethoxy)-phenylamino]-7-(3-methoxy-benzyl)-6-o-tolyl-7H-pyrido[3,4-d]pyrimidin-8-one]
– | 1 to 500 | 1 to 500 | COc1cccc(Cn2c(-c3ccccc3C)cc3cnc(Nc4cccc([S+](C)[O-])c4)nc3c2=O)c1 (stereo not shown) [Example 23, 2-(3-Methanesulfinyl-phenylamino)-7-(3-methoxy-benzyl)-6-o-tolyl-7H-pyrido[3,4-d]pyrimidin-8-one]
500 to 15000 | 1 to 500 | 1 to 500 | Cc1cc(Cn2c(-c3ccccc3Cl)cc3cnc(Nc4ccc(N5CCN(C)CC5)cc4)nc3c2=O)nn1C [Example 30, 6-(2-Chloro-phenyl)-7-(1,5-dimethyl-1H-pyrazol-3-ylmethyl)-2-[4-(4-methyl-piperazin-1-yl)-phenylamino]-7H-pyrido[3,4-d]pyrimidin-8-one]
– | 1 to 500 | 1 to 500 | CCN(CC)CCOc1ccc(Nc2ncc3cc(-c4ccccc4Cl)n(Cc4cc(C)n(C)n4)c(=O)c3n2)cc1 [Example 31, 6-(2-Chloro-phenyl)-2-[4-(2-diethylamino-ethoxy)-phenylamino]-7-(1,5-dimethyl-1H-pyrazol-3-ylmethyl)-7H-pyrido[3,4-d]pyrimidin-8-one]
– | 1 to 500 | 1 to 500 | Cc1cc(Cn2c(-c3ccccc3Cl)cc3cnc(Nc4cccc([S+](C)[O-])c4)nc3c2=O)nn1C (stereo not shown) [Example 33, 6-(2-Chloro-phenyl)-7-(1,5-dimethyl-1H-pyrazol-3-ylmethyl)-2-(3-methanesulfinyl-phenylamino)-7H-pyrido[3,4-d]pyrimidin-8-one]
– | 1 to 500 | 1 to 500 | COc1cccc(Cn2c(-c3ccccc3Cl)cc3cnc(Nc4ccc(S(=O)(=O)NCCO)cc4)nc3c2=O)c1 [Example 37, 4-[6-(2-Chloro-phenyl)-7-(3-methoxy-benzyl)-8-oxo-7,8-dihydro-pyrido[3,4-d]pyrimidin-2-ylamino]-N-(2-hydroxy-ethyl)-benzenesulfonamide]
